Data on 16 molecules can be found in patent US5763450A, “Substituted benzyl pyrimidines” (Hoffmann-La Roche Inc., priority 1994, dated 1998).

Assay [1] deals with purified DHFR of the multi-resistant strain S. aureus 157/4696. The assay can be described thus: Inhibition of purified DHFR of multi-resistant strain S. aureus 157/4696. The following applies: determined graphically. The assay is classed as biochemical. As to the method: The inhibition of the enzyme was taken as a measurement for the antibacterial activity. It is determined using the method of Baccanari and Joyner (Biochemistry 20, 1710 (1981)); see also P. G. Hartman et al., FEB 242, 157-160 (1988).
The IC50 values (concentration at which the enzyme is inhibited to 50%) are determined graphically.
The following Table contains inhibitory concentrations determined in the above test for representative members of the class of compound defined by formula I. The C50 values (μM) are given against the purified DHFR of the reference strain S. aureus ATCC 35923 as well as against the purified DHFR of the multi-resistant strain S. aureus 157/4696. […] The inhibition constants of trimethoprim are also given as a comparison.

For assay [2], the target named is purified DHFR of the reference strain S. aureus ATCC 25923 (Staphylococcus aureus, UniProt P0A017). The assay can be described thus: Inhibition of purified DHFR of reference strain S. aureus ATCC 25923. The assay is classed as biochemical.
The target of assay [3] is T1, purified DHFR of the opportunistic pathogen P. carinii (Pneumocystis carinii, UniProt P16184).
T1 sequence (P16184 1-206): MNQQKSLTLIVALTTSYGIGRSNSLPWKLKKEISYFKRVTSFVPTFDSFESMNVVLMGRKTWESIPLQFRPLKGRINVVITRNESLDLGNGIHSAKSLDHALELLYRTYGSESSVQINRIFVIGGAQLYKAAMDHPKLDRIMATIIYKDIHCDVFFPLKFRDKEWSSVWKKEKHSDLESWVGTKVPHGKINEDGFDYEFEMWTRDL
The assay can be described thus: biochemical. The note with it: determined graphically.

Counter-ions that a name gives are not always drawn.

For orientation: IC50 means the point on the concentration scale where inhibition reaches its midpoint. Read a high IC50 as weaker potency.

Chain of purified DHFR of the reference strain S. aureus ATCC 25923 (P0A017 whole entry): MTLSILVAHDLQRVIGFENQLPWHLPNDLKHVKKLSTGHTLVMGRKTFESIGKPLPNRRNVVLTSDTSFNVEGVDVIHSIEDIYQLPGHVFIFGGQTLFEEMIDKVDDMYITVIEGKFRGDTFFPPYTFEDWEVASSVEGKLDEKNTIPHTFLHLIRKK

Turning to `COc1cc(Cc2cnc(N)nc2N)cc(-c2ccc3ccccc3c2)c1OC` [Example 4h, 5-(3,4-dimethoxy-5-naphthalen-2-yl-benzyl)pyrimidine-2,4-diamine], the IC50 in assay [1] came out at 1.3 µM; in assay [2], 0.0022 µM; in assay [3], 1.6 µM.
Taken in the same sequence, the figures for `COc1cc(Cc2cnc(N)nc2N)cc(-c2cccc(O)c2)c1OC` [Example 5b, 5-(3'-hydroxy-5,6-dimethoxy-biphenyl-3-ylmethyl)-pyrimidine-2,4-diamine] were 2.2 µM, 0.004 µM and 2.3 µM.
Turning to `COc1cc(Cc2cnc(N)nc2N)cc(-c2ccc(C(=O)O)cc2)c1OC` [Example 5c, 5-(4'-carboxyl-5,6-dimethoxy-biphenyl-3-ylmethyl)-pyrimidine-2,4-diamine hydrochloride], the IC50 was 0.42 µM in assay [1], 0.0009 µM in assay [2] and 0.48 µM in assay [3].
Regarding `COc1cc(Cc2cnc(N)nc2N)cc(-c2ccc3cc(O)ccc3c2)c1OC` [Example 5h, 5-(3,4-dimethoxy-5-naphthalen-6-hydroxy-2-yl-benzyl)-pyrimidine-2,4-diamine], the results for the IC50 in assay [1], in assay [2] and in assay [3] were 0.5 µM, 0.0013 µM and 1 µM, respectively.
As for `COc1cc(Cc2cnc(N)nc2N)cc(-c2cc3c(cc2F)c(=O)c(C(=O)O)cn3C2CC2)c1OC` [Example 9a, 1-cyclopropyl-7-[5-(2,4-diaminopyrimidin-5-ylmethyl)-2,3-dimethoxy-phenyl]-6-fluoro-1,4-dihydro-4-oxo-quinoline-3-carboxylic acid trifluoroacetate], the IC50 in assay [1] came out at 0.05 µM; in assay [2], 0.0009 µM; in assay [3] it was 0.019 µM.
For `COc1ccc(Cc2cnc(N)nc2N)cc1-c1cc2c(cc1F)c(=O)c(C(=O)O)cn2C1CC1` [Example 9b, 1-cyclopropyl-7-[5-(2,4-diamino-pyrimidin-5-ylmethyl)-2-methoxy-phenyl]-6-fluoro-1,4-dihydro-4-oxo-quinoline-3-carboxylic acid trifluoroacetate], in that order: 0.11 µM, 0.0002 µM and 0.038 µM.
For `Nc1ncc(Cc2cccc(-c3cc4c(cc3F)c(=O)c(C(=O)O)cn4C3CC3)c2)c(N)n1` [Example 9c, 1-cyclopropyl-7-[5-(2,4-diamino-pyrimidin-5-ylmethyl)-phenyl]-6-fluoro-1,4-dihydro-4-oxo-quinoline-3-carboxylic acid], the IC50 was 0.21 µM in assay [1], 0.0019 µM in assay [2] and 0.2 µM in assay [3].
Taken in the same sequence, the figures for `COc1cc(Cc2cnc(N)nc2N)cc(C=Cc2ccc3ccccc3c2)c1OC` [Example 10b, 5-[3,4-dimethoxy-5-(2-naphthalen-2-yl-vinyl)-benzyl]-pyrimidine-2,4-diamine] were 0.75 µM, 0.02 µM and 4 µM.
As for `CCOC(=O)c1cn(CC)c2cc(C#Cc3cc(Cc4cnc(N)nc4N)cc(OC)c3OC)ccc2c1=O` [Example 12g, ethyl 1-ethyl-7-[5-(2,4-diamino-pyrimidin-5-ylmethyl)-2,3-dimethoxy-phenylethynyl]-4-oxo-1,4-dihydro-quinoline-3-carboxylate], the IC50 in assay [1] was found to be 0.13 µM; in assay [2], 0.005 µM; in assay [3] it was 0.9 µM.
Taken in the same sequence, the figures for `COc1cc(Cc2cnc(N)nc2N)cc(C#Cc2ccc3ccccc3c2)c1OC` [Example 15a, 5-[3,4-dimethoxy-5-(naphthalen-2-ylethynyl)-benzyl]-pyrimidine-2,4-diamine] were 0.7 µM, 0.015 µM and 8 µM.
As for `COc1cc(Cc2cnc(N)nc2N)cc(C#Cc2ccc3c(=O)c(C(=O)O)cn(C(C)(C)C)c3c2)c1OC` [Example 16ac, 1-tert-butyl-7-[5-(2,4-diamino-pyrimidin-5-ylmethyl)-2,3-dimethoxy-phenylethynyl]-4-oxo-1,4-dihydro-quinoline-3-carboxylate hydrochloride], the IC50 is 0.0016 µM in assay [1], 0.0009 µM in assay [2] and 0.19 µM in assay [3].
For `COc1cc(Cc2cnc(N)nc2N)cc(C#Cc2c(F)cc3c(=O)c(C(=O)O)cn(C4CC4)c3c2F)c1OC` [Example 16c, 1-cyclopropyl-7-[5-(2,4-diamino-pyrimidin-5ylmethyl)-2,3-dimethoxy-phenylethynyl]-6,8-difluoro-1,4-dihydro-4-oxo-quinoline-3-carboxylic acid hydrochloride], in that order: 0.0024 µM, 0.0012 µM and 0.036 µM.
Taken in the same sequence, the figures for `COc1cc(Cc2cnc(N)nc2N)cc(C#Cc2cc3c(cc2F)c(=O)c(C(=O)O)cn3C2CC2)c1OC` [Example 16e, 1-cyclopropyl-7-[5-(2,4-diamino-pyrimidin-5-ylmethyl)-2,3-dimethoxy-phenylethynyl]-6-fluoro-4-oxo-1,4-dihydro-quinoline-3-carboxylic acid trifluoroacetate] were 0.08 µM, 0.0029 µM and 3.4 µM.
For the molecule `CCn1cc(C(=O)O)c(=O)c2cc(F)c(C#Cc3cc(Cc4cnc(N)nc4N)cc(OC)c3OC)cc21` [Example 16f, 1-ethyl-7-[5-(2,4-diamino-pyrimidin-5-ylmethyl)-2,3-dimethoxy-phenylethynyl]-6-fluoro-4-oxo-1,4-dihydro-quinoline-3-carboxylic acid hydrochloride], the results for the IC50 in assay [1], in assay [2] and in assay [3] were 0.0065 µM, 0.0015 µM and 0.28 µM, respectively.
Taken in the same sequence, the figures for `COc1cc(Cc2cnc(N)nc2N)cc(C#Cc2ccc3cc(C(=O)O)ccc3c2)c1OC` [Example 16j, 6-[5-(2,4-diamino-pyrimidin-5-ylmethyl)-2,3-dimethoxy-phenylethynyl]-naphthalene-2-carboxylic acid hydrochloride] were 0.024 µM, 0.0009 µM and 5 µM.
On to `COc1cc(Cc2cnc(N)nc2N)cc(C#Cc2ccc3c(=O)c(C(=O)O)cn(Cc4ccccc4)c3c2)c1OC` [Example 16p, hydrochloride], for which the IC50 amounted to 0.0013 µM in assay [1], 0.0012 µM in assay [2] and 0.14 µM in assay [3].
